Source: the supplement of paper PMC11208160

Experiment: recombinant UMI read abundance after kanamycin selection (control-corrected) (log10(CPM+1)); higher = more efficient recombination; extreme values may be limits of the assay; sequences stand for … in AGTGCAGAGAAAATCGGCCAGTTTTCTCTGCCTGCAGTCCGCATGCCGTGGGACCCCTTGGGTTCTAACCTGTTGCCTAGATTTATGCAGCGGACTGCCTTTCTCCCAAAGTGATAAACCGG…AGGTTGGTTTCACT; site = the 11-nt donor
Method in brief: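 Under IPTG (0.07 mM) plus kanamycin, or without selection, Escherichia coli carrying a UMI-tagged donor and donor-binding-loop pair library and a target plasmid for the IS621 bridge recombinase were plated in two replicates. Recombinant UMIs were PCR-amplified across the donor–target junction and sequenced. Counts were converted to CPM, averaged over replicates, scaled by control-derived factors and reported as log10(CPM+1).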
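Note: IS621 bridge recombinase in Escherichia coli cells against a fixed T5 target plasmid.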

First: CTCGAATCATGGACCGGTTTTCCCGGTAATCCGTATTTGAA (site CTCGAATCTTT)
Second: GGCAATGCATGGACCGGTTTTCCCGGTAATCCGTATTTGAA (site GGCAATGCTTT)
The “recombinant UMI read abundance (log10)” value of the first is higher: 1.86 for the first, 1.26 for the second.

“GAGGTCACATGGACCGGTTTTCCCGGTAATCCGTATTTGAT (site GAGTTCACTAT)” and “AGGAAGACATGGACCGGTTTTCCCGGTAATCCGTATTTGCA (site AGGCAGGCTTG)” are within 0.2 log units of each other in “recombinant UMI read abundance (log10)” value: 0 for the first, 0.0104 for the second.

Going from “GGGACGTCATGGACCGGTTTTCCCGGTAATCCGTATTTGTT (site GGGACGTCTAA)” to “GTATGGACATGGACCGGTTTTCCCGGTAATCCGTATTTGTA (site GTATGAACTTA)”, the “recombinant UMI read abundance (log10)” value rises from 1.78 to 2.39.

First: TGCTATGCATGGACCGGTTTTCCCGGTAATCCGTATTTGGT (site TGCTATGCTAC)
Second: CTGGAGGCATGGACCGGTTTTCCCGGTAATCCGTATTTGTG (site ATGGAGGCTCA)
The “recombinant UMI read abundance (log10)” value of the first is higher: 0.262 for the first, 0.00337 for the second.

Going from “AGGTTCCCATGGACCGGTTTTCCCGGTAATCCGTATTTGTT (site AGGTTCCCTAA)” to “TAGAATGCATGGACCGGTTTTCCCGGTAATCCGTATTTGCA (site TAGAATACTTG)”, the “recombinant UMI read abundance (log10)” value rises from 0 to 0.258.

Compared with “CAAACAGCATGGACCGGTTTTCCCGGTAATCCGTATTTGCT (site CAAACAGCTAG)”, “CTTCGCTCATGGACCGGTTTTCCCGGTAATCCGTATTTGTA (site CTTCTCTCTTA)” is lower in “recombinant UMI read abundance (log10)” value: 2.26 for the first, 0.00289 for the second.

“CATTTGGCATGGACCGGTTTTCCCGGTAATCCGTATTTGGA (site CACTTGGCTTC)” and “GGATACACATGGACCGGTTTTCCCGGTAATCCGTATTTGGG (site GGATACACTCC)” are within 0.2 log units of each other in “recombinant UMI read abundance (log10)” value: 0.438 for the first, 0.348 for the second.

Compared with “ATAATCGCATGGACCGGTTTTCCCGGTAATCCGTATTTGGG (site ATAATCGCTCC)”, “GGATAGGCATGGACCGGTTTTCCCGGTAATCCGTATTTGCC (site GGATAGACTGG)” is higher in “recombinant UMI read abundance (log10)” value: 0.324 for the first, 1.94 for the second.

Going from “ATAAGGCCATGGACCGGTTTTCCCGGTAATCCGTATTTGCC (site ATAAGGCCTGA)” to “GAAAATTCATGGACCGGTTTTCCCGGTAATCCGTATTTGTT (site GAAGATTCTAA)”, the “recombinant UMI read abundance (log10)” value rises from 0 to 0.507.

“GTTGTCGCATGGACCGGTTTTCCCGGTAATCCGTATTTGCG (site GTAGTCGCTCG)” and “ACAGCATCATGGACCGGTTTTCCCGGTAATCCGTATTTGTA (site ACAGTATCTTG)” are within 0.2 log units of each other in “recombinant UMI read abundance (log10)” value: 0.0153 for the first, 0 for the second.

Going from “GTGCCGACATGGACCGGTTTTCCCGGTAATCCGTATTTGAC (site GTGCCGACTGT)” to “GTTCGAACATGGACCGGTTTTCCCGGTAATCCGTATTTGCA (site GTTCGAGCTTG)”, the “recombinant UMI read abundance (log10)” value falls from 2.4 to 0.00306.

“CCCATAGCATGGACCGGTTTTCCCGGTAATCCGTATTTGTC (site CCCATACCTGA)” and “TGTTCACCATGGACCGGTTTTCCCGGTAATCCGTATTTGTA (site TGTTCACCTTA)” are within 0.2 log units of each other in “recombinant UMI read abundance (log10)” value: 0 for the first, 0.00651 for the second.

Compared with “CGGGAAACATGGACCGGTTTTCCCGGTAATCCGTATTTGCA (site CTGGAAACTTG)”, “TATAGCGCATGGACCGGTTTTCCCGGTAATCCGTATTTGGC (site TATAGCGCTGC)” is higher in “recombinant UMI read abundance (log10)” value: 1.04 for the first, 2.48 for the second.

Compared with “ACAATATCATGGACCGGTTTTCCCGGTAATCCGTATTTGCA (site ACACTATCTTG)”, “GGTTATCCATGGACCGGTTTTCCCGGTAATCCGTATTTGCT (site GTTTATCCTAG)” is lower in “recombinant UMI read abundance (log10)” value: 1.83 for the first, 0 for the second.

First: AGGAAGACATGGACCGGTTTTCCCGGTAATCCGTATTTGCA (site ACAAAGACTTG)
Second: ATAGTAGCATGGACCGGTTTTCCCGGTAATCCGTATTTGAC (site CTAGTATCTGT)
The “recombinant UMI read abundance (log10)” value of the first is higher: 1.25 for the first, 0 for the second.

First: GAAGATTCATGGACCGGTTTTCCCGGTAATCCGTATTTGTG (site GAAGATTCTTA)
Second: CACTTGGCATGGACCGGTTTTCCCGGTAATCCGTATTTGGA (site CACTTCGCTTC)
The “recombinant UMI read abundance (log10)” value of the first is higher: 1.24 for the first, 0.0367 for the second.

“CTATTTCCATGGACCGGTTTTCCCGGTAATCCGTATTTGGA (site CTATTTCCTTC)” and “GACCGGGCATGGACCGGTTTTCCCGGTAATCCGTATTTGAA (site GACCGGGCTTT)” are within 0.2 log units of each other in “recombinant UMI read abundance (log10)” value: 0 for the first, 0.143 for the second.

Going from “AGGAAGACATGGACCGGTTTTCCCGGTAATCCGTATTTGCA (site AGTTAGACTTG)” to “ACAAGGGCATGGACCGGTTTTCCCGGTAATCCGTATTTGAC (site ACAAGGGCTGT)”, the “recombinant UMI read abundance (log10)” value rises from 1 to 2.69.

“TTCCTGTCATGGACCGGTTTTCCCGGTAATCCGTATTTGAA (site TTCCTGTCTTT)” and “CACTTAGCATGGACCGGTTTTCCCGGTAATCCGTATTTGGA (site CACTTTGCTTC)” are within 0.2 log units of each other in “recombinant UMI read abundance (log10)” value: 0.0685 for the first, 0 for the second.

Going from “CGGACATCATGGACCGGTTTTCCCGGTAATCCGTATTTGCT (site CGGACGTCTAG)” to “AGATAGGCATGGACCGGTTTTCCCGGTAATCCGTATTTGCT (site AGATAGGCTAG)”, the “recombinant UMI read abundance (log10)” value rises from 0 to 2.66.

Compared with “AGAGTATCATGGACCGGTTTTCCCGGTAATCCGTATTTGCA (site AGAGTATCTTG)”, “CAGAATCCATGGACCGGTTTTCCCGGTAATCCGTATTTGTC (site CAGAATCCTGA)” is lower in “recombinant UMI read abundance (log10)” value: 3.29 for the first, 2.5 for the second.

Compared with “GGTGCTACATGGACCGGTTTTCCCGGTAATCCGTATTTGGA (site GGTGCTACTTC)”, “ACGTTAGCATGGACCGGTTTTCCCGGTAATCCGTATTTGTG (site ACGTTAGCTCA)” is higher in “recombinant UMI read abundance (log10)” value: 0.449 for the first, 1.84 for the second.

Compared with “CCAGGTGCATGGACCGGTTTTCCCGGTAATCCGTATTTGAT (site CCCGGTGCTAT)”, “GTTCTTCCATGGACCGGTTTTCCCGGTAATCCGTATTTGGT (site GTTTTTCCTAC)” is lower in “recombinant UMI read abundance (log10)” value: 0.433 for the first, 0 for the second.

Going from “AAGTGAGCATGGACCGGTTTTCCCGGTAATCCGTATTTGGA (site AAGTGAGCTTC)” to “CACGGCCCATGGACCGGTTTTCCCGGTAATCCGTATTTGAT (site CACGGCCCTAT)”, the “recombinant UMI read abundance (log10)” value falls from 0.812 to 0.255.

“CGTGCCCCATGGACCGGTTTTCCCGGTAATCCGTATTTGGC (site CGTGCCCCTGC)” and “AGGTTCGCATGGACCGGTTTTCCCGGTAATCCGTATTTGTG (site AGGTTCCCTCA)” are within 0.2 log units of each other in “recombinant UMI read abundance (log10)” value: 0 for the first, 0.015 for the second.

Going from “AAAGAAGCATGGACCGGTTTTCCCGGTAATCCGTATTTGGA (site AAAGAAGCTTC)” to “AAGCAAGCATGGACCGGTTTTCCCGGTAATCCGTATTTGGG (site AAGCAGGCTCC)”, the “recombinant UMI read abundance (log10)” value falls from 1.94 to 0.

“CCCTTTACATGGACCGGTTTTCCCGGTAATCCGTATTTGCT (site CCGTTTACTAG)” and “ACTGCTACATGGACCGGTTTTCCCGGTAATCCGTATTTGGT (site ACTGCTACTAC)” are within 0.2 log units of each other in “recombinant UMI read abundance (log10)” value: 0 for the first, 0.194 for the second.

“CCAGGTGCATGGACCGGTTTTCCCGGTAATCCGTATTTGAT (site CCAGGTCCTAT)” and “CTCGTCGCATGGACCGGTTTTCCCGGTAATCCGTATTTGGG (site CTCGTCGCTCC)” are within 0.2 log units of each other in “recombinant UMI read abundance (log10)” value: 0 for the first, 0.0128 for the second.

First: CACAGGGCATGGACCGGTTTTCCCGGTAATCCGTATTTGAG (site CACAGGGCTCT)
Second: GTAGGTACATGGACCGGTTTTCCCGGTAATCCGTATTTGAC (site GTAGGTTCTGT)
The “recombinant UMI read abundance (log10)” value of the first is higher: 1.97 for the first, 1.76 for the second.

Compared with “GTGGACGCATGGACCGGTTTTCCCGGTAATCCGTATTTGTG (site GTGGAGGCTCA)”, “GCTATTGCATGGACCGGTTTTCCCGGTAATCCGTATTTGCC (site GCTATTGCTGG)” is higher in “recombinant UMI read abundance (log10)” value: 0.0785 for the first, 0.891 for the second.

First: CCTCGTACATGGACCGGTTTTCCCGGTAATCCGTATTTGAG (site CCTCGTACTCT)
Second: TGAGATACATGGACCGGTTTTCCCGGTAATCCGTATTTGAG (site TGAGATACTCT)
The “recombinant UMI read abundance (log10)” value of the first is lower: 0.0191 for the first, 2.26 for the second.

“GCCACCCCATGGACCGGTTTTCCCGGTAATCCGTATTTGTA (site GCCACCCCTTA)” and “GCTTATCCATGGACCGGTTTTCCCGGTAATCCGTATTTGCT (site GTTTATCCTAG)” are the same in “recombinant UMI read abundance (log10)” value: 0 for the first, 0 for the second.

Going from “ACACATCCATGGACCGGTTTTCCCGGTAATCCGTATTTGAA (site ACACATCCTAT)” to “AGGAAGACATGGACCGGTTTTCCCGGTAATCCGTATTTGCA (site AGGAACACTGG)”, the “recombinant UMI read abundance (log10)” value falls from 0.229 to 0.014.

“ATAAGGCCATGGACCGGTTTTCCCGGTAATCCGTATTTGAC (site ATAATGCCTGT)” and “TCTTCTGCATGGACCGGTTTTCCCGGTAATCCGTATTTGAT (site TCTTCTGCTAT)” are the same in “recombinant UMI read abundance (log10)” value: 0 for the first, 0 for the second.

First: AGGAACCCATGGACCGGTTTTCCCGGTAATCCGTATTTGCA (site AGGAACCCTTG)
Second: GCGATTCCATGGACCGGTTTTCCCGGTAATCCGTATTTGTA (site GCGATTCCTTA)
The “recombinant UMI read abundance (log10)” value of the first is lower: 0.786 for the first, 1.49 for the second.

Compared with “TGGACGGCATGGACCGGTTTTCCCGGTAATCCGTATTTGGC (site TGGTCGGCTGC)”, “AGGAAGACATGGACCGGTTTTCCCGGTAATCCGTATTTGCA (site GGGAAGACTAG)” is lower in “recombinant UMI read abundance (log10)” value: 0.392 for the first, 0 for the second.

Compared with “CGATCGACATGGACCGGTTTTCCCGGTAATCCGTATTTGTT (site CGATCGACTAA)”, “TAATGTGCATGGACCGGTTTTCCCGGTAATCCGTATTTGGG (site TAATGTGCTCC)” is lower in “recombinant UMI read abundance (log10)” value: 0.6 for the first, 0.0867 for the second.

For “GAGGGTACATGGACCGGTTTTCCCGGTAATCCGTATTTGGC (site GAGGGTACTGC)”, the “recombinant UMI read abundance (log10)” value was 2.1.
